Positions of bridges follow the written chain, without caps; N, C: chain ends. Non-standard residues stand in square brackets, D forms with d. Residues, ends and D or L forms follow the SMILES beside them. hArg = N=C(N)NCCCC[C@H](N)C(=O)O; Mpa = O=C(O)CCS
How the values were obtained:
neutrophils = assay: Tubing loop model, neutrophil activation by flow cytometry (CD15/CD11b); format: cell-based, human; details: anti-platelet agent in combination with NM4047
Method: (§1) In the following examples, heparinized whole blood from a donor volunteer was circulated in a PVC tubing at 37° C. to allow complement and cellular activation. It is known that alternative complement pathway is activated when blood comes in contact with the artificial surface of the PVC tubing. As a result, complement is activated to release inflammatory molecules. These inflammatory molecules activate neutrophils, monocytes and platelets. The monoclonal antibody NM4047, inhibits complement activation in vitro in human serum. NM4047 inhibits C3a, C5a, and C5b-9 in whole blood in the tubing loop model. […] We attributed these findings to the Fc region on the IgG1. Removal of Fc domain with Ficin generated an F(ab′)2 molecule which inhibited C3a, C5a, C5b-9.
(§2) NM4047 is an IgG1 monoclonal antibody that was identified as a blocker of alternative complement pathway activation. The monoclonal antibody was evaluated for inhibition of complement and cellular activation in a whole blood based extracorporeal circulation model. In this model, whole heparinzed human blood was diluted with plasmalyte and circulated in a PVC tubing loop for 2 h at 37° C. to allow complement activation to occur. A total of 21 tubing loops were prepared. […] Nine tubing loops received 400 μg/ml concentration of NM4047 and the other nine received 100 μg/ml concentration of NM4047. Tubing loops were then rotated for 2 h at 37° C. Following the rotation, aliquots of the blood were stained for flow cytometry for the evaluation of cellular activation. A separate aliquot of blood was centrifuged to separate plasma, which was used for measuring complement activation products in ELISA. […] Cellular activation was evaluated using flow cytometry methods. […] Cell populations were read in the BD-LSR 1 and Cell Quest software. The raw data taken from Cell Quest were analyzed using Win List software from Verity, populations were measured using Ln Median shifts in the activation marker in the case of neutrophils and monocytes, and population percentage shifts for platelets. […]

platelets = assay: Tubing loop model, platelet activation by flow cytometry (CD61/CD62P); format: cell-based, human; details: for effect on Fc mediated platelet activation (CD62P): anti-platelet agent at various concentrations with 400 μg/ml NM4047
Method: as §1
NM4047 is an IgG1 monoclonal antibody that was identified as a blocker of alternative complement pathway activation. The monoclonal antibody was evaluated for inhibition of complement and cellular activation in a whole blood based extracorporeal circulation model. In this model, whole heparinzed human blood was diluted with plasmalyte and circulated in a PVC tubing loop for 2 h at 37° C. to allow complement activation to occur. A total of 21 tubing loops were prepared. […] Nine tubing loops received 400 μg/ml concentration of NM4047 and the other nine received 100 μg/ml concentration of NM4047. Tubing loops were then rotated for 2 h at 37° C. Following the rotation, aliquots of the blood were stained for flow cytometry for the evaluation of cellular activation. A separate aliquot of blood was centrifuged to separate plasma, which was used for measuring complement activation products in ELISA. […] However, activation of neutrophils, monocytes, and platelets was not inhibited. Cellular activation was evaluated using flow cytometry methods. Aliquots of blood sample were stained with FITC labeled CD15 for neutrophils, FITC labeled CD14 for monocytes, and FITC labeled CD61 for Platelets. The cells were also stained with activation markers PE labeled CD11b for neutrophils and monocytes, and PE labeled CD62P for platelets. The staining was done in three groups, one group containing CD15/CD11b, second group contained CD14/CD11b, and the third group contained CD61/CD62P antibodies. Following staining, the cells were lysed with lysis buffer, centrifuged to pellet the cells. After a quick wash with 1% BSA/PBS, the cells were suspended in 1% paraformaldehyde buffer. Cell populations were read in the BD-LSR 1 and Cell Quest software. The raw data taken from Cell Quest were analyzed using Win List software from Verity, populations were measured using Ln Median shifts in the activation marker in the case of neutrophils and monocytes, and population percentage shifts for platelets. The data was then plotted on MicroCal Origin software. […] The lack of cellular inhibition could only be explained by the fact that the IgG1 had the Fc region. To determine if the predicted Fc is the cause of the observed cellular activation, IgG1 was digested with Ficin protease.
NM4047 (IgG1) monoclonal antibody was evaluated for inhibition of complement and cellular activation in a whole blood based extracorporeal circulation model in the presence of ReoPro. ReoPro is a GPIIbIIIa monoclonal antibody that binds resting and activated platelets. In this experiment, heparinzed human blood was diluted with plasmalyte and circulated in a PVC tubing loop for 2 h at 37° C. to allow complement activation to occur. A total of 21 tubing loops were prepared. […] Nine tubing loops received 400 μg/ml concentration of NM4047 and the other nine received 100 μg/ml concentration of NM4047. All samples other than controls received 10 μg/ml of ReoPro (clinical material). All tubing loops were then rotated for 2 h at 37° C. Following the rotation, aliquots of the blood were stained for flow cytometry for the evaluation of cellular activation. […]

monocytes = assay: Tubing loop model, monocyte activation by flow cytometry (CD14/CD11b); format: cell-based, human; details: anti-platelet agent in combination with NM4047
Method: as §1, §2

complement activation = assay: Tubing loop model, overall complement activation or inhibition; format: biochemical, human; details: anti-platelet agent in combination with NM4047
Method: as §2, with “activation.” for “activation. A separate aliquot of blood was centrifuged to separate plasma, which was used for measuring complement activation products in ELISA.”
NM4047 (IgG1) monoclonal antibody was evaluated for inhibition of complement and cellular activation in a whole blood based extracorporeal circulation model in the presence of ReoPro. […] Cellular activation was evaluated using flow cytometry methods. […]

erythrocytes = assay: Hemolysis of erythrocytes in tubing loop experiments; format: cell-based, human; details: high concentration doses; tested at 5-50 μg/ml
Excerpt: In this example, we evaluated the effects of Aspirin a commonly used inhibitor of platelet activation. Aspirin is also used as a standard of care for cardiac procedures. […] The tubing loop experiments presented in various examples above remained the same. The only difference was in the type of test agent used across these experiments. While good results were noticed with ReoPro and Aggrastat, the cost of such drugs may be prohibitive. In such cases, aspirin may become a viable option.

Row | Molecule | effect on neutrophil activation (neutrophils) | effect on Fc mediated platelet activation (CD62P) (platelets) | concentration achieving complete inhibition of platelet activation (platelets; with 400 μg/ml NM4047, 1 to 20 μg/ml tested) [µg/mL] | effect on monocyte activation (monocytes) | effect on level of complement inhibition by NM4047 (complement activation) | hemolysis of erythrocytes (erythrocytes) | total platelet activation (platelets; Integrillin 100 μg/ml with 400 μg/ml NM4047) | inhibition of platelet activation (platelets; ReoPro 10 μg/ml with NM4047 400 or 100 μg/ml) [%] | platelet activation in samples containing IgG2 antibody (platelets; ReoPro together with IgG2 antibody) | concentration at which effect on platelet inhibition starts to vanish (platelets; with 400 μg/ml NM4047) [µg/mL]
1 | CCCCS(=O)(=O)N[C@@H](Cc1ccc(OCCCCC2CCNCC2)cc1)C(=O)O [Aggrastat, Tirofiban] | no effect | highly potent | 1 | no effect | – | – | – | – | – | –
2 | CC(=O)Oc1ccccc1C(=O)O [Aspirin] | only partial effect | inhibits | – | only partial effect | did not alter | caused hemolysis | – | – | – | –
3 | N=C(N)NCCCC[C@@H]1NC(=O)CCSSC[C@@H](C(N)=O)NC(=O)[C@@H]2CCCN2C(=O)[C@H](Cc2c[nH]c3ccccc23)NC(=O)[C@H](CC(=O)O)NC(=O)CNC1=O [Integrillin, Eptifibatide] ([Mpa][hArg]GDWPC-NH2; disulfide 1-7) | – | does not inhibit | – | – | – | – | at least 4 fold | – | – | –
4 | Abciximab (antibody, chains of the INN, looked up, V domains shown, Fab, monoclonal F(ab) fragment GPIIb/IIIa antagonist) VH: EVQLQQSGTVLARPGASVKMSCEASGYTFTNYWMHWVKQRPGQGLEWIGAIYPGNSDTSYIQKFKGKAKLTAVTSTTSVYMELSSLTNEDSAVYYCTLYDGYYVFAYWGQGTLVTVSA VL: EIVLTQSPVTLSVTPGDSVSLSCRASRDISNNLHWFQQTSHESPRLLIKYASQSMSGIPSRFSGSGSGTDFTLSINSVETEDFGMYFCQQTNSWPYTFGGGTKLEIK | does not inhibit | dose dependent | – | does not inhibit | did not affect | – | – | ~100 | inhibited | 0.5
